Results as given in patent US20260001928A1 (CORTERIA PHARMACEUTICALS, priority 2022, published 2026).
*1 amine or outer side, *2 acyl side, *3 side chain or, on linkers, in order; H or OH if unused. Where a SMILES comes first, the peptide text is derived from it. Side-chain parts run from the residue outwards. [ ]: non-standard residue; d: D form. The star is where a group is joined. C18 diacid = O=C(O)CCCCCCCCCCCCCCCCC(=O)*; γGlu = O=C(O)[C@H](CCC(=O)[*:2])N[*:1]; C12 diacid = O=C(O)CCCCCCCCCCC(=O)*; NMeI = CC[C@H](C)[C@H](NC)C(=O)O; Api = NC1(C(=O)O)CCNCC1; Pentanoyl = CCCCC(=O)*; Aib = CC(C)(N)C(=O)O

Columns and labels:
CFR1R receptor = molecular target: T1, CFR1R receptor (Homo sapiens, UniProt P34998); experiment: Activity at anti-target CFR1R receptor, cAMP assay in CRF1R-overexpression CHO-K1 cells; assay type: cell-based; conditions: 100% = Sauvagine at 100 nM; for EC50: cAMP
T1 construct: host or cells: CHO-K1 (clone 2)
T1 sequence (P34998 24-415): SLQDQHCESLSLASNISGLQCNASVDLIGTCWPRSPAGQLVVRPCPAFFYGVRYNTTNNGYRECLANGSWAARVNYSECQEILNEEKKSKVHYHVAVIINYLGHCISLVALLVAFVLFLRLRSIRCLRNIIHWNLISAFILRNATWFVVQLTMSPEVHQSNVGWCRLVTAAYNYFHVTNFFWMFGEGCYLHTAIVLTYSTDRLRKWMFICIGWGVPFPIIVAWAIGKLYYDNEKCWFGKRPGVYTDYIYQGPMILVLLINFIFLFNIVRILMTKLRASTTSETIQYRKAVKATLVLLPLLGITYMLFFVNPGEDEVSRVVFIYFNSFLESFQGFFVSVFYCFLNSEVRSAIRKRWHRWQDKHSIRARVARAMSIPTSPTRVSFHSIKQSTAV
In short: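 Clone 2 cells were cultured in F12 (Hams)/10% FBS/400 μg/ml G418 at 37° C./5% CO2, frozen in medium with 10% DMSO, and thawed vials used. The protocol followed the TeloHAEC procedure, with 4000 cells/well final and Sauvagine at 100 nM defining 100% activation.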

human CRF2a receptor = molecular target: T2, human CRF2a receptor (Homo sapiens, UniProt Q13324); experiment: Activity at human CRF2a receptor, cAMP functional assay in TeloHEAC cells; assay type: cell-based; conditions: TeloHEAC cells stably expressing human CRF2a receptor, relative to urocortin 2 (100 nM = 100%)
T2 construct: expressed in transfected cells; host or cells: TeloHEAC cells
T2 sequence (Q13324 1-411): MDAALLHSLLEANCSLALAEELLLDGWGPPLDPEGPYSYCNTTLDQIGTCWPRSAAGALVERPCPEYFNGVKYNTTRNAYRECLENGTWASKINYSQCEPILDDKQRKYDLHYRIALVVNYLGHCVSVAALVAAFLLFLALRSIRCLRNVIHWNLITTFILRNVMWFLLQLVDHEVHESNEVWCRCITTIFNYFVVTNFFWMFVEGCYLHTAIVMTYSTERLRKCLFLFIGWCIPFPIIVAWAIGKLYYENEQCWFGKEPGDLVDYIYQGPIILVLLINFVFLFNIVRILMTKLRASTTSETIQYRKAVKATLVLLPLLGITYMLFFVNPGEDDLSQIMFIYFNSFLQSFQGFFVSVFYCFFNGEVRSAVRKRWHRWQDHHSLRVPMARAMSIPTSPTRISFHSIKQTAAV
In short: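 TeloHEAC cells stably expressing human CRF2a (10000 cells/well) were treated with 16-point 1:2 compound dilutions in HBSS/20 mM HEPES with IBMX for 30 min at 37° C. cAMP was read by HTRF (665/620 nm ratio). EC50 was the concentration giving 50% activation, with 100 nM urocortin 2 set as 100%.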

| SMILES | Emax (% I) (CFR1R receptor) | EC50 (CFR1R receptor) | EC50 (human CRF2a receptor) |
| --- | --- | --- | --- |
| CC[C@H](C)[C@H](NC(C)=O)C(=O)N[C@H](C(=O)N[C@@H](CC(C)C)C(=O)N[C@@H](CO)C(=O)N[C@@H](CC(C)C)C(=O)N[C@@H](CC(=O)O)C(=O)N[C@@H](C(=O)N1CCC[C@H]1C(=O)N[C@H](C(=O)N[C@@H](CCCCN)C(=O)N[C@@H](CC(C)C)C(=O)N[C@@H](CCCCNC(=O)CC[C@H](NC(=O)CCCCCCCCCCC(=O)O)C(=O)O)C(=O)N[C@@H](CCCCN)C(=O)N[C@H](C(=O)N[C@@H](CC(C)C)C(=O)N[C@@H](CC(C)C)C(=O)N[C@@H](CCC(=O)O)C(=O)N[C@@H](CCC(N)=O)C(=O)N[C@@H](CCC(=O)O)C(=O)N[C@@H](CCCCN)C(=O)N[C@@H](CCC(N)=O)C(=O)N[C@@H](CCCCN)C(=O)NC(C)(C)C(=O)N[C@@H](CCC(N)=O)C(=O)N[C@@H](CCCNC(=N)N)C(=O)N[C@@H](CCC(=O)O)C(=O)N[C@@H](CCC(N)=O)C(=O)N[C@@H](C)C(=O)N[C@@H](CCC(=O)O)C(=O)N[C@H](C(=O)N[C@@H](CC(N)=O)C(=O)NC1(C(=O)N[C@@H](CCC(N)=O)C(=O)N[C@H](C(=O)N[C@@H](CC(C)C)C(=O)N[C@@H](C)C(=O)N[C@@H](CCC(N)=O)C(=O)N[C@H](C(N)=O)C(C)C)[C@@H](C)CC)CCNCC1)[C@@H](C)O)[C@@H](C)CC)[C@@H](C)CC)C(C)C)C(C)C [compound 184] (Ac-IVLSLD[dV]PIKLK([γGlu-C12 diacid])KILLEQEKQK[Aib]QREQAETN[Api]QILAQV-NH2) | 3 % I | > 250 nM | 4.25 nM |
| CCCCC(=O)N[C@H](C(=O)N[C@@H](CC(C)C)C(=O)N[C@@H](CO)C(=O)N[C@@H](CC(C)C)C(=O)N[C@@H](CC(=O)O)C(=O)N[C@@H](C(=O)N1CCC[C@H]1C(=O)N[C@H](C(=O)N[C@@H](CCCCN)C(=O)N[C@@H](CC(C)C)C(=O)N[C@@H](CCCCNC(=O)CC[C@H](NC(=O)CCCCCCCCCCC(=O)O)C(=O)O)C(=O)N[C@@H](CCCCN)C(=O)N[C@H](C(=O)N[C@@H](CC(C)C)C(=O)N[C@@H](CC(C)C)C(=O)N[C@@H](CCC(=O)O)C(=O)N[C@@H](CCC(N)=O)C(=O)N[C@@H](CCC(=O)O)C(=O)N[C@@H](CCCCN)C(=O)N[C@@H](CCC(N)=O)C(=O)N[C@@H](CCCCN)C(=O)N[C@@H](CCCCN)C(=O)N[C@@H](CCC(N)=O)C(=O)N[C@@H](CCCNC(=N)N)C(=O)N[C@@H](CCC(=O)O)C(=O)N[C@@H](CCC(N)=O)C(=O)N[C@@H](C)C(=O)N[C@@H](CCC(=O)O)C(=O)N[C@H](C(=O)N[C@@H](CC(N)=O)C(=O)NC(C)(C)C(=O)N[C@@H](CCC(N)=O)C(=O)N[C@H](C(=O)N[C@@H](CC(C)C)C(=O)N[C@@H](C)C(=O)N[C@@H](CCC(N)=O)C(=O)N[C@H](C(N)=O)C(C)C)[C@@H](C)CC)[C@@H](C)O)[C@@H](C)CC)[C@@H](C)CC)C(C)C)C(C)C [compound 185] (Pentanoyl-VLSLD[dV]PIKLK([γGlu-C12 diacid])KILLEQEKQKKQREQAETN[Aib]QILAQV-NH2) | 2 % I | > 250 nM | 3.54 nM |
| CC[C@H](C)[C@H](NC(C)=O)C(=O)N[C@H](C(=O)N[C@@H](CC(C)C)C(=O)N[C@@H](CO)C(=O)N[C@@H](CC(C)C)C(=O)N[C@@H](CC(=O)O)C(=O)N[C@@H](C(=O)N1CCC[C@H]1C(=O)N[C@H](C(=O)NCC(=O)N[C@@H](CC(C)C)C(=O)N[C@@H](CCCCNC(=O)CC[C@H](NC(=O)CCCCCCCCCCCCCCCCC(=O)O)C(=O)O)C(=O)N[C@@H](CCCCN)C(=O)N[C@H](C(=O)N[C@@H](CC(C)C)C(=O)N[C@@H](CC(C)C)C(=O)N[C@@H](CCC(=O)O)C(=O)N[C@@H](CCC(N)=O)C(=O)N[C@@H](CCC(=O)O)C(=O)N[C@@H](CCCCN)C(=O)N[C@@H](CCC(N)=O)C(=O)N[C@@H](CCCCN)C(=O)N[C@@H](CCCCN)C(=O)N[C@@H](CCC(N)=O)C(=O)N[C@@H](CCCNC(=N)N)C(=O)N[C@@H](CCC(=O)O)C(=O)N[C@@H](CCC(N)=O)C(=O)N[C@@H](C)C(=O)N[C@@H](CCC(=O)O)C(=O)N[C@H](C(=O)N[C@@H](CC(N)=O)C(=O)NC(C)(C)C(=O)N[C@@H](CCC(N)=O)C(=O)N[C@H](C(=O)N[C@@H](CC(C)C)C(=O)N[C@@H](C)C(=O)N[C@@H](CCC(N)=O)C(=O)N[C@H](C(N)=O)C(C)C)[C@@H](C)CC)[C@@H](C)O)[C@@H](C)CC)[C@@H](C)CC)C(C)C)C(C)C [compound 191] (Ac-IVLSLD[dV]PIGLK([γGlu-C18 diacid])KILLEQEKQKKQREQAETN[Aib]QILAQV-NH2) | 54 % I |  | 0.18 nM |

The remaining compounds from weak to strong by EC50 (human CRF2a receptor), led by results:

| Emax (% I) (CFR1R receptor) | EC50 (CFR1R receptor) | EC50 (human CRF2a receptor) | SMILES |
| --- | --- | --- | --- |
| 2 % I | > 250 nM | 0.79 nM | CC[C@H](C)[C@H](NC)C(=O)N[C@H](C(=O)N[C@@H](CC(C)C)C(=O)N[C@@H](CO)C(=O)N[C@@H](CC(C)C)C(=O)N[C@@H](CC(=O)O)C(=O)N[C@@H](C(=O)N1CCC[C@H]1C(=O)N[C@H](C(=O)N[C@@H](CCCCN)C(=O)N[C@@H](CC(C)C)C(=O)N[C@@H](CCCCNC(=O)CC[C@H](NC(=O)CCCCCCCCCCC(=O)O)C(=O)O)C(=O)N[C@@H](CCCCN)C(=O)N[C@H](C(=O)N[C@@H](CC(C)C)C(=O)N[C@@H](CC(C)C)C(=O)N[C@@H](CCC(=O)O)C(=O)N[C@@H](CCC(N)=O)C(=O)N[C@@H](CCC(=O)O)C(=O)N[C@@H](CCCCN)C(=O)N[C@@H](CCC(N)=O)C(=O)N[C@@H](CCCCN)C(=O)N[C@@H](CCCCN)C(=O)N[C@@H](CCC(N)=O)C(=O)N[C@@H](CCCNC(=N)N)C(=O)N[C@@H](CCC(=O)O)C(=O)N[C@@H](CCC(N)=O)C(=O)N[C@@H](C)C(=O)N[C@@H](CCC(=O)O)C(=O)N[C@H](C(=O)N[C@@H](CC(N)=O)C(=O)NC(C)(C)C(=O)N[C@@H](CCC(N)=O)C(=O)N[C@H](C(=O)N[C@@H](CC(C)C)C(=O)N[C@@H](C)C(=O)N[C@@H](CCC(N)=O)C(=O)N[C@H](C(N)=O)C(C)C)[C@@H](C)CC)[C@@H](C)O)[C@@H](C)CC)[C@@H](C)CC)C(C)C)C(C)C [compound 186] (H-[NMeI]VLSLD[dV]PIKLK([γGlu-C12 diacid])KILLEQEKQKKQREQAETN[Aib]QILAQV-NH2) |
| 19 % I | > 250 nM | 0.11 nM | CC[C@H](C)[C@H](NC)C(=O)N[C@H](C(=O)N[C@@H](CC(C)C)C(=O)N[C@@H](CO)C(=O)N[C@@H](CC(C)C)C(=O)N[C@@H](CC(=O)O)C(=O)N[C@@H](C(=O)N1CCC[C@H]1C(=O)N[C@H](C(=O)NCC(=O)N[C@@H](CC(C)C)C(=O)N[C@@H](CCCCNC(=O)CC[C@H](NC(=O)CCCCCCCCCCCCCCCCC(=O)O)C(=O)O)C(=O)N[C@@H](CCCCN)C(=O)N[C@H](C(=O)N[C@@H](CC(C)C)C(=O)N[C@@H](CC(C)C)C(=O)N[C@@H](CCC(=O)O)C(=O)N[C@@H](CCC(N)=O)C(=O)N[C@@H](CCC(=O)O)C(=O)N[C@@H](CCCCN)C(=O)N[C@@H](CCC(N)=O)C(=O)N[C@@H](CCCCN)C(=O)N[C@@H](CCCCN)C(=O)N[C@@H](CCC(N)=O)C(=O)N[C@@H](CCCNC(=N)N)C(=O)N[C@@H](CCC(=O)O)C(=O)N[C@@H](CCC(N)=O)C(=O)N[C@@H](C)C(=O)N[C@@H](CCC(=O)O)C(=O)N[C@H](C(=O)N[C@@H](CC(N)=O)C(=O)NC(C)(C)C(=O)N[C@@H](CCC(N)=O)C(=O)N[C@H](C(=O)N[C@@H](CC(C)C)C(=O)N[C@@H](C)C(=O)N[C@@H](CCC(N)=O)C(=O)N[C@H](C(N)=O)C(C)C)[C@@H](C)CC)[C@@H](C)O)[C@@H](C)CC)[C@@H](C)CC)C(C)C)C(C)C [compound 192] (H-[NMeI]VLSLD[dV]PIGLK([γGlu-C18 diacid])KILLEQEKQKKQREQAETN[Aib]QILAQV-NH2) |
